Ends that are not written are not given here. Peptide text beside a SMILES is read from it. * marks the point of attachment. FITC = O=C1OC2(c3ccc(O)cc3Oc3cc(O)ccc32)c2ccc(NC(=S)*)cc21
Assays:
[1] = biological target: T1, AP2M1 (Homo sapiens, UniProt Q96CW1); assay: FP saturation (direct) binding of FITC-labeled probe peptide, AP2M1
T1 construct: His-GST (cleaved yes); made in house; host or cells: E. coli BL21-Gold(DE3)
T1 sequence (Q96CW1 160-435 limits assumed): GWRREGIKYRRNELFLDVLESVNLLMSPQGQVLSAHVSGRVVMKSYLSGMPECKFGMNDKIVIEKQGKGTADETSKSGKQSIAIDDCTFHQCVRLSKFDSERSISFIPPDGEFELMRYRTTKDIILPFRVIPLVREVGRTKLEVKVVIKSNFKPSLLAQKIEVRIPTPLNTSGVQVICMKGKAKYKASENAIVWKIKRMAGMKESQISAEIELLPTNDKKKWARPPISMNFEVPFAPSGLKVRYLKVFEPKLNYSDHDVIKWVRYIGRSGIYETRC
Procedure: (§1) Proteins used for FP affinity measurements were expressed and purified in larger-scale bacterical cultures (at least 8 × 500 mL 2YT). His-GST-tagged G3BP1 and G3BP2 were used directly for affinity measurements after dialysis.
(§2) FP experiments were carried out using a SpectraMax iD5 multimode microplate reader (Molecular Devices) using a black half area 96-well plate (Corning, USA #3993) with a total volume of 50 μL. The settings used were 485 nm for excitation and 535 nm for emission.
(§3) Peptides were from GeneCust (France) with a purity of over 95%. FITC-labeled peptides were dissolved in dimethyl sulfoxide (DMSO). Unlabelled peptides were dissolved in phosphate buffer (50 mM phosphate buffer pH 7.5 and 1–2 mM reducing agent DTT or TCEP). All measurements were performed at least in triplicates. For saturation binding experiment, proteins were serially diluted in the plate with phosphate buffer in a volume 25 μL, and then supplemented with a master mix of 10 nM FITC-labeled peptide in phosphate buffer. […] Twenty-five mitroliter of this displacement master mix was added to unlabeled peptides, which were serially diluted in the plate in 25 μL phosphate buffer.
(§4) The data were analysed with GraphPad Prism version 9.0.0 for MacOS (GraphPad Software, San Diego, California USA, www.graphpad.com). […]

[2] = biological target: FERM domain of Ezrin (EZR) (Homo sapiens, UniProt P15311); assay: biochemical; assay type: binding
Chain of FERM domain of Ezrin (EZR) (P15311 2-296 limits assumed): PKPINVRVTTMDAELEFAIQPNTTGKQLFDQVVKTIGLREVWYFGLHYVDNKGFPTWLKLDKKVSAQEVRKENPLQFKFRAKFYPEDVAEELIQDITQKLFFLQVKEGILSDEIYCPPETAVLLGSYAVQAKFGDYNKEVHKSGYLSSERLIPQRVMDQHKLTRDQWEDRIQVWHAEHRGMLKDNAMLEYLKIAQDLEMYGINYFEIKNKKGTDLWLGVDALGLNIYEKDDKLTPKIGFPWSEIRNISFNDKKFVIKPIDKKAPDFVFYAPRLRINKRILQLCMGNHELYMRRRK

[3] = biological target: T2, MAP1LC3C (Homo sapiens, UniProt Q9BXW4); assay: biochemical; assay type: binding
T2 construct: His-GST (cleaved yes); made in house; host or cells: E. coli BL21-Gold(DE3)
T2 sequence (Q9BXW4 1-126 limits assumed): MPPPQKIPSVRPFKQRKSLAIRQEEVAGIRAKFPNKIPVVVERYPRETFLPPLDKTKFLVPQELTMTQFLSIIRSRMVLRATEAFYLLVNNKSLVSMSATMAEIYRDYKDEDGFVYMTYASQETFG

[4] = biological target: T3, USP7 (Homo sapiens, UniProt Q93009); assay: biochemical; assay type: binding
T3 construct: His-GST (cleaved yes); made in house; host or cells: E. coli BL21-Gold(DE3)
T3 sequence (Q93009 63-205 limits assumed): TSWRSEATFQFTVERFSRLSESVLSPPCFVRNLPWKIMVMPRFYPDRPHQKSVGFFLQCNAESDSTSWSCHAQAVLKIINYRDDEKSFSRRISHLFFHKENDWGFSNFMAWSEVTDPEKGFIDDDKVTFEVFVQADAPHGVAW

[5] = biological target: T3, USP7; assay: FP saturation (direct) binding of FITC-labeled probe peptide, USP7; conditions: Kd direct binding of 10 nM FITC probe, saturation with protein
Procedure: as §1, §2, §3, §4

[6] = biological target: T1, AP2M1; assay: biochemical; assay type: binding
[7] = biological target: T2, MAP1LC3C; assay: FP saturation (direct) binding of FITC-labeled probe peptide, MAP1LC3C
Procedure: as §1, §2, §3, §4

**Q.** For `CC(C)C[C@H](NC(=O)[C@H](CCCNC(=N)N)NC(=O)[C@H](CCC(N)=O)NC(=O)[C@H](Cc1ccc(O)cc1)NC(=O)[C@H](CCC(=O)O)NC(=O)[C@@H](NC(=O)[C@H](CC(=O)O)NC(=O)[C@H](Cc1ccccc1)NC(=S)Nc1ccc2c(c1)C(=O)OC21c2ccc(O)cc2Oc2cc(O)ccc21)[C@@H](C)O)C(=O)N[C@@H](CCC(=O)O)C(=O)N[C@@H](C)C(=O)N[C@@H](CO)C(=O)O` [ATG9A 4-14 Human] (HELM PEPTIDE1{[O=C1OC2(c3ccc(O)cc3Oc3cc(O)ccc32)c2ccc(NC(=S)[*:2])cc21].F.D.T.E.Y.Q.R.L.E.A.S}$$$$V2.0), which Kd [1] is on record?
**A.** 1.1 ± 0.03 µM

**Q.** For `CC(C)C[C@H](NC(=O)[C@@H](NC(=O)[C@H](CC(=O)O)NC(=O)[C@H](Cc1ccccc1)NC(=O)[C@H](CO)NC(=O)[C@H](CC(N)=O)NC(=O)[C@H](CO)NC(=O)[C@@H](NC(=O)[C@H](CCC(=O)O)NC(=O)[C@@H](N)C(C)C)[C@@H](C)O)C(C)C)C(=O)N[C@@H](CCCCN)C(=O)N[C@@H](CO)C(=O)N[C@@H](CCC(=O)O)C(=O)N[C@@H](CC(=O)O)C(=O)N[C@@H](C)C(=O)N[C@@H](CCC(N)=O)C(=O)N[C@@H](Cc1ccc(O)cc1)C(=O)O` [NSP3 2019-2034 Sars-CoV2], which Kd [2] is on record?
**A.** 19.8 ± 0.4 µM

**Q.** And the IC50 [3]?
**A.** 1530 µM

**Q.** And the Kd [3]?
**A.** 210 ± 18 µM

**Q.** What about the Ki [3] of the same molecule?
**A.** 210 µM

**Q.** What about the IC50 [4] of the same molecule?
**A.** 270 µM

**Q.** And the Kd [4]?
**A.** 37 ± 0.2 µM

**Q.** And the Ki [4]?
**A.** 37 µM

**Q.** With “{FITC}-DYSQPSTSSSIIY [MDM2 393-414 Human]” as the molecule, how does the “Ki displacement/Kd direct binding” value [5] read?
**A.** 0.49 µM

**Q.** With `CC[C@H](C)[C@H](NC(=O)[C@H](CC(C)C)NC(=O)[C@@H](NC(=O)CNC(=O)[C@@H](NC(=O)[C@H](CCC(=O)O)NC(=O)[C@H](CCC(=O)O)NC(=O)[C@H](CO)NC(=O)[C@@H](NC(=O)[C@H](Cc1ccccc1)NC(=O)[C@H](CO)NC(=O)[C@H](Cc1ccc(O)cc1)NC(=O)[C@@H](N)CCSC)C(C)C)[C@@H](C)O)[C@@H](C)O)C(=O)N[C@H](C(=O)N[C@@H](CC(N)=O)C(=O)N[C@@H](CO)C(=O)O)C(C)C` [E 1-16 Sars-CoV2/Sars-CoV] (H-MYSFVSEETGTLIVNS-OH) as the molecule, how does the Kd [2] read?
**A.** 57.9 ± 0.4 µM

**Q.** For `CC[C@H](C)[C@H](NC(=O)[C@H](Cc1c[nH]cn1)NC(=O)[C@H](CCCCN)NC(=O)[C@H](CC(N)=O)NC(=O)[C@H](CC(C)C)NC(C)=O)C(=O)N[C@@H](CC(=O)O)C(=O)N[C@@H](C)C(=O)N[C@@H](Cc1ccc(O)cc1)C(=O)N[C@@H](CCCCN)C(=O)N[C@H](C(=O)N[C@@H](Cc1ccccc1)C(=O)N1CCC[C@H]1C(=O)N1CCC[C@H]1C(=O)N[C@H](C(=O)N[C@@H](CCC(=O)O)C(N)=O)[C@@H](C)O)[C@@H](C)O` [N 353-367 Sars-CoV2/Sars-CoV], which IC50 [6] is on record?
**A.** 1530 µM

**Q.** What about the Ki [6] of the same molecule?
**A.** 530 µM

**Q.** `CC[C@H](C)[C@H](NC(=O)[C@H](CC(=O)O)NC(=O)[C@H](CO)NC(=O)[C@@H](NC(=O)[C@@H](NC(=O)CNC(C)=O)C(C)C)C(C)C)C(=O)N[C@@H](CC(=O)O)C(=O)N[C@@H](Cc1ccc(O)cc1)C(=O)N[C@H](C(=O)N1CCC[C@H]1C(=O)N[C@@H](CC(C)C)C(=O)N[C@@H](CCCCN)C(=O)N[C@@H](CO)C(=O)N[C@@H](C)C(=O)N[C@H](C(N)=O)[C@@H](C)O)C(C)C` was tested. Which Kd [6] did it give?
**A.** 1.6 ± 0.2 µM

**Q.** Which Kd [7] does the source give for `CC(C)C[C@H](NC(=O)[C@H](Cc1c[nH]cn1)NC(=O)[C@@H](NC(=O)[C@H](Cc1c[nH]c2ccccc12)NC(=O)[C@H](CC(=O)O)NC(=O)[C@H](CC(=O)O)NC(=O)[C@H](CC(=O)O)NC(=S)Nc1ccc2c(c1)C(=O)OC21c2ccc(O)cc2Oc2cc(O)ccc21)[C@@H](C)O)C(=O)N[C@@H](CO)C(=O)N[C@@H](CO)C(=O)N[C@@H](CCCCN)C(N)=O` [SQSTM1 335-344 Human] here?
**A.** 1.1 ± 0.03 µM

From paper PMC8605023 (Nature Communications, 2021)
